ChEMBL document CHEMBL1201862, “PubChem BioAssay data set” (2004)
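Grown in 96-well plates, cells were treated for 48 hours with each compound at five concentrations. Insufficient inhibition: endpoint recorded as highest concentration tested. Here, GI50 denotes the concentration required for 50% inhibition of growth.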 Activity calls are given as the source filed them. No stated cut-off is given here; in the data, active = GI50 up to about 1.1 µM and inactive = higher.

Columns and labels:
Experiment in all cases: DTP human tumour cell line panel, 48 h
786-0 = tested on: 786-0
A498 = tested on: A498
A549 = tested on: A549
ACHN = tested on: ACHN
CAKI-1 = tested on: CAKI-1
CCRF-CEM = tested on: CCRF-CEM
COLO 205 = tested on: COLO 205
DLD-1 = tested on: DLD-1
DMS-114 = tested on: DMS-114
DMS-273 = tested on: DMS-273
EKVX = tested on: EKVX
HCC 2998 = tested on: HCC 2998
HCT-116 = tested on: HCT-116
HCT-15 = tested on: HCT-15
HL-60 = tested on: HL-60
HOP-18 = tested on: HOP-18
HOP-62 = tested on: HOP-62
HOP-92 = tested on: HOP-92
HT-29 = tested on: HT-29
IGROV-1 = tested on: IGROV-1
K562 = tested on: K562
KM-20L2 = tested on: KM-20L2
KM12 = tested on: KM12
LOX IMVI = tested on: LOX IMVI
LXFL 529 = tested on: LXFL 529
M14 = tested on: M14
M19-MEL = tested on: M19-MEL
MOLT-4 = tested on: MOLT-4
Malme-3M = tested on: Malme-3M
NCI-H226 = tested on: NCI-H226
NCI-H23 = tested on: NCI-H23
NCI-H460 = tested on: NCI-H460
NCI-H522 = tested on: NCI-H522
OVCAR-3 = tested on: OVCAR-3
OVCAR-4 = tested on: OVCAR-4
OVCAR-5 = tested on: OVCAR-5
OVCAR-8 = tested on: OVCAR-8
RPMI-8226 = tested on: RPMI-8226
RXF 393 = tested on: RXF 393
SF-268 = tested on: SF-268
SF-295 = tested on: SF-295
SF-539 = tested on: SF-539
SK-MEL-28 = tested on: SK-MEL-28
SK-MEL-2 = tested on: SK-MEL-2
SK-MEL-5 = tested on: SK-MEL-5
SK-OV-3 = tested on: SK-OV-3
SN12C = tested on: SN12C
SNB-19 = tested on: SNB-19
SNB-75 = tested on: SNB-75
SNB-78 = tested on: SNB-78
SW-620 = tested on: SW-620
TK-10 = tested on: TK-10
U-251 = tested on: U-251
UACC-257 = tested on: UACC-257
UACC-62 = tested on: UACC-62
UO-31 = tested on: UO-31
XF498 = tested on: XF498
SR = tested on: SR

COc1ccc(/C=C2/C[N+](C)(C)C/C(=C/c3ccc(OC)cc3)C2=O)cc1
GI50 (786-0): 34.7 µM (inactive) | GI50 (A498): 68.4 µM (inactive) | GI50 (A549): > 76.4 µM (inactive) | GI50 (ACHN): > 100 µM (inactive) | GI50 (CAKI-1): > 100 µM (inactive) | GI50 (CCRF-CEM): 18.5 µM (inactive) | GI50 (COLO 205): 16.9 µM (inactive) | GI50 (DLD-1): 28.7 µM (inactive) | GI50 (DMS-114): 13.4 µM (inactive) | GI50 (DMS-273): 18.3 µM (inactive) | GI50 (EKVX): > 100 µM (inactive) | GI50 (HCC 2998): 15.3 µM (inactive) | GI50 (HCT-116): 32.5 µM (inactive) | GI50 (HCT-15): > 100 µM | GI50 (HL-60): 14.7 µM (inactive) | GI50 (HOP-18): > 100 µM (inactive) | GI50 (HOP-62): > 100 µM (inactive) | GI50 (HOP-92): 52.1 µM (inactive) | GI50 (HT-29): 30.2 µM (inactive) | GI50 (IGROV-1): 23.9 µM (inactive) | GI50 (K562): 11.6 µM (inactive) | GI50 (KM-20L2): 50 µM (inactive) | GI50 (KM12): 16 µM (inactive) | GI50 (LOX IMVI): 88.1 µM (inactive) | GI50 (LXFL 529): 21.9 µM (inactive) | GI50 (M14): 70.5 µM (inactive) | GI50 (M19-MEL): 23.6 µM (inactive) | GI50 (MOLT-4): 16.7 µM (inactive) | GI50 (Malme-3M): 22.5 µM (inactive) | GI50 (NCI-H226): 20.9 µM (inactive) | GI50 (NCI-H23): 56 µM (inactive) | GI50 (NCI-H460): 38.2 µM (inactive) | GI50 (NCI-H522): 17.9 µM (inactive) | GI50 (OVCAR-3): 30 µM (inactive) | GI50 (OVCAR-4): 36 µM (inactive) | GI50 (OVCAR-5): > 68.7 µM (inactive) | GI50 (OVCAR-8): 31.9 µM (inactive) | GI50 (RPMI-8226): 5.7 µM (inactive) | GI50 (RXF 393): > 100 µM (inactive) | GI50 (SF-268): 26.9 µM (inactive) | GI50 (SF-295): > 77.1 µM (inactive) | GI50 (SF-539): 40 µM (inactive) | GI50 (SK-MEL-28): 12.9 µM (inactive) | GI50 (SK-MEL-2): 25.6 µM (inactive) | GI50 (SK-MEL-5): 23.4 µM (inactive) | GI50 (SK-OV-3): > 100 µM (inactive) | GI50 (SN12C): 36.1 µM (inactive) | GI50 (SNB-19): 43.3 µM (inactive) | GI50 (SNB-75): 66.7 µM (inactive) | GI50 (SNB-78): 38.5 µM (inactive) | GI50 (SW-620): 42.7 µM (inactive) | GI50 (TK-10): > 100 µM (inactive) | GI50 (U-251): 19.5 µM (inactive) | GI50 (UACC-257): 29.4 µM (inactive) | GI50 (UACC-62): 16.3 µM (inactive) | GI50 (UO-31): > 100 µM (inactive) | GI50 (XF498): 88.7 µM (inactive)

Cc1cc2c(cc1C)[n+]([O-])c(C(=O)/C=C/c1ccc(Cl)cc1)c(C)[n+]2[O-]
GI50 (786-0): 18.9 µM (inactive) | GI50 (A498): 26.7 µM (inactive) | GI50 (A549): 28.2 µM (inactive) | GI50 (ACHN): 25.5 µM (inactive) | GI50 (CAKI-1): 32.3 µM (inactive) | GI50 (CCRF-CEM): 32.9 µM (inactive) | GI50 (COLO 205): 20.5 µM (inactive) | GI50 (DLD-1): 28.8 µM (inactive) | GI50 (DMS-114): 29.1 µM (inactive) | GI50 (DMS-273): 33.1 µM (inactive) | GI50 (EKVX): 55 µM (inactive) | GI50 (HCC 2998): 23.5 µM (inactive) | GI50 (HCT-15): 33 µM | GI50 (HL-60): 24 µM (inactive) | GI50 (HOP-18): 25.2 µM (inactive) | GI50 (HOP-62): 24.4 µM (inactive) | GI50 (HOP-92): 28.6 µM (inactive) | GI50 (HT-29): 30.3 µM (inactive) | GI50 (IGROV-1): 24.5 µM (inactive) | GI50 (K562): 33.6 µM (inactive) | GI50 (KM-20L2): 36.6 µM (inactive) | GI50 (KM12): 33.7 µM (inactive) | GI50 (LOX IMVI): 21.7 µM (inactive) | GI50 (LXFL 529): 28.2 µM (inactive) | GI50 (M14): 23.3 µM (inactive) | GI50 (M19-MEL): 35.3 µM (inactive) | GI50 (MOLT-4): 23.8 µM (inactive) | GI50 (Malme-3M): 38.5 µM (inactive) | GI50 (NCI-H226): > 100 µM (inactive) | GI50 (NCI-H23): 20.7 µM (inactive) | GI50 (NCI-H460): 25.9 µM (inactive) | GI50 (NCI-H522): 19.4 µM (inactive) | GI50 (OVCAR-3): 33 µM (inactive) | GI50 (OVCAR-4): 33.7 µM (inactive) | GI50 (OVCAR-5): 42.3 µM (inactive) | GI50 (OVCAR-8): 29.7 µM (inactive) | GI50 (RPMI-8226): 23.4 µM (inactive) | GI50 (SF-268): > 10 µM (inactive) | GI50 (SF-295): 22 µM (inactive) | GI50 (SF-539): 20.5 µM (inactive) | GI50 (SK-MEL-28): 23.2 µM (inactive) | GI50 (SK-MEL-2): 29.5 µM (inactive) | GI50 (SK-MEL-5): 23.7 µM (inactive) | GI50 (SK-OV-3): 34.7 µM (inactive) | GI50 (SN12C): 32.8 µM (inactive) | GI50 (SNB-19): 30.3 µM (inactive) | GI50 (SNB-75): 19.6 µM (inactive) | GI50 (SNB-78): > 100 µM (inactive) | GI50 (SW-620): 31.1 µM (inactive) | GI50 (TK-10): 22.2 µM (inactive) | GI50 (U-251): 26.8 µM (inactive) | GI50 (UACC-257): 27.3 µM (inactive) | GI50 (UACC-62): 20.3 µM (inactive) | GI50 (UO-31): 17.9 µM (inactive) | GI50 (XF498): 21.6 µM (inactive)

O=c1[nH]c(=O)n(C2OC(COP(=O)(O)OP(=O)(O)O)C(O)C2O)cc1F (stereo not given)
GI50 (786-0): 0.239 µM (active) | GI50 (A498): 6.25 µM (inactive) | GI50 (A549): 0.119 µM (active) | GI50 (ACHN): 0.178 µM (active) | GI50 (CAKI-1): 0.368 µM (active) | GI50 (CCRF-CEM): 0.817 µM (active) | GI50 (COLO 205): 1.57 µM (inactive) | GI50 (DLD-1): 0.226 µM (active) | GI50 (DMS-114): 28.5 µM (inactive) | GI50 (DMS-273): 0.456 µM (active) | GI50 (EKVX): 2.44 µM (inactive) | GI50 (HCC 2998): 0.538 µM (active) | GI50 (HCT-116): 0.0643 µM (active) | GI50 (HCT-15): 0.446 µM | GI50 (HL-60): 7.43 µM (inactive) | GI50 (HOP-18): > 28 µM (inactive) | GI50 (HOP-62): 2.24 µM (inactive) | GI50 (HOP-92): > 50 µM (inactive) | GI50 (HT-29): 0.716 µM (active) | GI50 (IGROV-1): 11.8 µM (inactive) | GI50 (K562): 0.184 µM (active) | GI50 (KM-20L2): 0.923 µM (active) | GI50 (KM12): 2.28 µM (inactive) | GI50 (LOX IMVI): 0.251 µM (active) | GI50 (LXFL 529): 0.555 µM (active) | GI50 (M14): 1.55 µM (inactive) | GI50 (M19-MEL): 1.82 µM (inactive) | GI50 (MOLT-4): 0.877 µM (active) | GI50 (Malme-3M): 0.726 µM (active) | GI50 (NCI-H226): 3.13 µM (inactive) | GI50 (NCI-H23): 2.08 µM (inactive) | GI50 (NCI-H460): 0.0453 µM (active) | GI50 (NCI-H522): 2.48 µM (inactive) | GI50 (OVCAR-3): 6.34 µM (inactive) | GI50 (OVCAR-4): 1.23 µM (inactive) | GI50 (OVCAR-5): 7 µM (inactive) | GI50 (OVCAR-8): 2.11 µM (inactive) | GI50 (RPMI-8226): 0.436 µM (active) | GI50 (RXF 393): 2.57 µM (inactive) | GI50 (SF-268): 0.298 µM (active) | GI50 (SF-295): 0.822 µM (active) | GI50 (SF-539): 0.594 µM (active) | GI50 (SK-MEL-28): 2.13 µM (inactive) | GI50 (SK-MEL-2): 6.79 µM (inactive) | GI50 (SK-MEL-5): 4.31 µM (inactive) | GI50 (SK-OV-3): 3.92 µM (inactive) | GI50 (SN12C): 0.916 µM (active) | GI50 (SNB-19): 0.743 µM (active) | GI50 (SNB-75): 8.65 µM (inactive) | GI50 (SNB-78): 5.79 µM (inactive) | GI50 (SR): 1.34 µM (inactive) | GI50 (SW-620): 0.171 µM (active) | GI50 (TK-10): 15.6 µM (inactive) | GI50 (U-251): 0.391 µM (active) | GI50 (UACC-257): 6.11 µM (inactive) | GI50 (UACC-62): 2.7 µM (inactive) | GI50 (UO-31): 6.08 µM (inactive) | GI50 (XF498): 1.69 µM (inactive)
